Results taken from PMC4418665, “Cyclization of the Urokinase Receptor-Derived Ser-Arg-Ser-Arg-Tyr Peptide Generates a Potent Inhibitor of Trans-Endothelial Migration of Monocytes” (PLoS ONE, 2015).
Peptide text beside a SMILES is read from it.

Assays:
[1] = target: T1, FPR1 (Homo sapiens, UniProt P21462); assay: Agonist-induced FPR1 internalization at 37°C, fluorescence microscopy, THP-1 cells; assay type: cell-based; parameters: host or cells: THP-1 human monocytic leukemia cells; conditions: excess (100 nM) unlabelled peptide 30 min at 37°C, then 10 nM FITC-fMLF 30 min at 37°C
T1 sequence (P21462 1-350): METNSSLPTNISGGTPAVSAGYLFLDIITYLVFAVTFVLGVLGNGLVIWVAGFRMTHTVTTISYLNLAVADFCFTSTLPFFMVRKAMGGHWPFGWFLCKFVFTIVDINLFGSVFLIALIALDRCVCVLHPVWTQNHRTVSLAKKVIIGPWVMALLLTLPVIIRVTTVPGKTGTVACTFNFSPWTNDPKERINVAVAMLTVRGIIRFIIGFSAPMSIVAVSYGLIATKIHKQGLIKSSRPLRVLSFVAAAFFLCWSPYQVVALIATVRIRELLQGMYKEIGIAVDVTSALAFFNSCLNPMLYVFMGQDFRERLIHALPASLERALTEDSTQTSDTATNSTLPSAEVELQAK
Method: Once documented that both SRSRY and [SRSRY] peptides compete with fMLF for binding to FPR1, we investigated the effect of [SRSRY] on the motility of monocytes. Preliminarily, we assessed whether [SRSRY] is a ligand of FPR1 on monocyte cell surface. […] (Fig 3A). When binding experiments were performed at 37°C, FPR1 appeared mainly localized within the cytoplasm, adjacent but outside the nucleus of THP-1 cells.
Fig 3 The peptide [SRSRY] binds to FPR1 on THP-1 cell surface. A. THP-1 cells (1.5 x10^6 cells/sample) were pre-incubated with diluents (None), 100 nM fMLF, 100 nM SRSRY or 100 nM [SRSRY] peptides for 60 minutes at 4°C, then exposed to 10 nM N-formyl-Nle-Leu-Phe-Nle-Tyr-Lys-fluorescein (FITC-fMLF) for additional 60 minutes at 4°C. Fluorimetric measurement of cell-associated fluorescence was assed using 485 nm excitation and 535 nm emission filters. Data are expressed as a percentage of the fluorescence associated to THP-1 cells exposed to FITC-fMLF alone (None = 100%) and represent a mean ± SD from triplicates. *Statistical significance (t-test) against None with p<0.001. B. THP-1 cells incubated with diluents (None), 100 nM fMLF, 100 nM SRSRY or 100 nM [SRSRY] peptides for 30 minutes at 37°C and exposed to 10 nM FITC-fMLF for additional 30 minutes at 37°C. Scale bar: 5 μm. Original magnifications: 630x. […]

[2] = test system: PMA-differentiated THP-1 cells; assay type: cell-based, human; conditions: 3 h
Method: The ability of [SRSRY] peptide to affect THP-1 cell migration was analyzed in Boyden chambers using 10 nM fMLF or 10 nM SRSRY as chemoattractants. […] Inhibitory effect of [SRSRY] is dose-dependent, it starts in the high fM range, it seems to level off in the μM range and reaches an overall 50% reduction at 10 pM (Fig 4B). […] The mechanisms by which monocytes move when subjected to a chemoattractant gradient, involve changes in cytoskeletal organization, which provide both protrusive and contractile forces necessary for cell migration. To gain some insights into the cellular effects exerted by peptide [SRSRY], PMA-differentiated THP-1 cells were grown adherent onto a glass slide, exposed to diluents (CTL), 10 nM fMLF gradient plus/minus 10 nM [SRSRY] or 10 nM [RSSYR] in a DUNN chamber for 6 hours as described, and then stained with rhodamine-phalloidin. A total of 100 cells/sample that translocated to the area corresponding to the ring separating the inner and outer chambers were counted and their cytoskeletal organization examined with a fluorescence-inverted microscope. […] Conversely, the addition of peptide [SRSRY] to the fMLF gradient reduced cell elongation and alignment with the appearance of F-actin linear distribution along the plasma membranes in the 60% of cell population (Fig 4C). In order to verify whether the inhibitory effect of [SRSRY] also occurs on primary monocytes and/or macrophages, human monocytes and macrophages were subjected to cell migration assays in Boyden and DUNN chambers, respectively. […] Unlike [RSSYR], 10 nM [SRSRY] reduced both fMLF- and SRSRY- directed monocyte migration by 50% and 49%, respectively. Next, primary macrophages were subjected to cell migration assay in DUNN chamber as above described. After 6 hours incubation, a total of 100 cells/sample that translocated to the area corresponding to the ring separating the inner and outer chambers were counted. Macrophage exposure to 10 nM fMLF elicited a considerable cell migration, reaching 230% of the basal cell migration (CTL), that was unchanged by 10 nM [[…]). […] These findings indicate that unlike linear SRSRY, the cyclic form of the chemotactic sequence of uPAR inhibits monocyte motility and prevents cytoskeletal re-organization occurring during migration of macrophages. {[…]] inhibits migration of monocytes and macrophages in a dose-dependent manner causing a marked inhibition of fMLF-dependent cytoskeletal re-organization. A. THP-1 cells (1x10^5 cells/well) were allowed to migrate for 90 minutes at 37°C, 5% CO2 in Boyden chambers toward 10 nM fMLF, or 10 nM SRSRY in the presence of diluents (None), 10 nM [RSSYR] or 10 nM [SRSRY]. […] Data are expressed as the means ± SD of three independent experiments, performed in duplicate. *Statistical significance against None with p<0.001. B. THP-1 and PMA-stimulated THP-1 cell migration toward 10 nM fMLF plus increasing concentrations of [SRSRY] in Boyden chambers. The extent of cell migration was expressed as a percentage of the net fMLF-dependent cell migration, considered as 100%. Data are expressed as the means ± SD of three independent experiments, performed in duplicate. C. Representative images of PMA-stimulated THP-1 cells allowed to migrate in a DUNN chamber toward diluents (CTL), or a fMLF chemotactic gradient, in the absence (None) or presence of 10 nM [SRSRY] or [RSSYR] peptides and stained with rhodamine-phalloidin. Scale bar: 10 μm. Original magnifications: 630x. D-E. Primary monocytes (1x10^5 cells/well) were allowed to migrate for 90 minutes at 37°C, 5% CO2 in Boyden chambers toward 10 nM fMLF (D), or 10 nM […]) in the presence of diluents (None), 10 nM [RSSYR] or 10 nM [SRSRY]. […] Data are expressed as the means ± SD of three independent experiments, performed in duplicate. *Statistical significance against None with p<0.001; **Statistical significance against None with p<0.0001. […]

For `N=C(N)NCCC[C@@H]1NC(=O)[C@H](CO)NC(=O)[C@H](Cc2ccc(O)cc2)NC(=O)[C@H](CCCNC(=N)N)NC(=O)[C@H](CO)NC1=O` [[SRSRY], [Ser-Arg-Ser-Arg-Tyr]] (cyclo(RSRYS)), the “internalization of fluorescent agonist in THP-1 cells” value [1] was “dramatically reduced” and the IC50 [2] was 0.01 nM.
